# Entries after “also recorded” stand apart in the source; their conditions may differ.
# What was measured:
# [1] = Chronic feeding of ketone supplements: weight and caloric intake; assay type: in vivo, Sprague Dawley rats; conditions: for Approximate caloric intake compared to controls: rats, following adaptation to diet (weeks 13-15)
# Text: (§1) Male Sprague Dawley rats (N=10/group) were fed ad libitum (approximate dose based on food intake recorded during study) for the study duration (15 weeks).
# (§2) Measured Parameters: • Weight • Food/calorie intake • Blood glucose • Blood ketones • Triglycerides • Total Cholesterol • HDL • LDL • Safety/toxicity—serum clinical chemistry tests for kidney and liver function Inflammatory Profile: […]
# [2] = test system: kidney and liver function; test: Chronic feeding of ketone supplements: serum clinical chemistry for kidney and liver function; assay type: in vivo, Sprague Dawley rats; design: key: ns = no change from control; conditions: rat serum, 15 weeks, vs SD-fed control
# Text: as §1, §2
# [3] = test system: serum cytokines/chemokines; test: Chronic feeding of ketone supplements: serum inflammatory profile; assay type: in vivo, Sprague Dawley rats; design: key to MIP-1a, change from control / IL-4, change from control / IL-1b, change from control / IL-2, change from control / IL-10, change from control / IFNy, change from control / IL-5, change from control / IL-17a, change from control / IL-18, change from control / MCP-1, change from control / IP-10, change from control / GRO/KC, change from control / VEGF, change from control / LIX, change from control / MIP-2, change from control / TNF-a, change from control / RANTES, change from control / G-CSF, change from control / GM-CSF, change from control / IL-1a, change from control / Leptin, change from control: ↑: Increased from control; ↓: Decreased from control; —: no change; T: Trend towards significance; *p < 0.05; **p < 0.01; ***p < 0.001; conditions: rat serum, 15 weeks
# Text: as §1, §2
# Ube3a-deficient mice [4] = test: Kainic acid-induced seizures; assay type: in vivo; conditions: kainic acid 20 mg/kg i.p.; 10 and 45 minutes post-administration; AS treated vs AS control
# Procedure: (§3) Mice. Mice with the UBE3A null mutation (AS) were described previously (Jiang Y H et al., Neuron, 1998, 21(4):799-811). All experiments were performed on mice that have been backcrossed to the C57BL/6 line (Jackson Labs, Bar Harbor, Me.) for at least 5 generations. Female C57BL/6 mice containing the null mutation were bred with C57BL/6 (WT) males to produce maternally-deficient AS offspring and WT littermate controls. Audiogenic seizure experiments were performed on mice with the 129/SvEv background, with the same breeding scheme as the C57BL/6 mice. Animals were kept on a 12 hour light-dark cycle and food and water provided ad libitum. All animal testing procedures were approved by the Institutional Animal Care and Use Committee of the University of South Florida and followed the NIH guidelines for the care and use of laboratory animals.
# (§4) Ketone ester administration. Control mice received standard rodent chow fed ad libitum. Mice receiving the ketone supplement were administered BD-AcAc2 with their standard rodent chow ad libitum.
# Kainic acid injections. Mice were injected with 20 mg/kg of kainic acid i.p. and were monitored for seizure activity for 45 minutes and behavioral seizure score was recorded (modified Racine's scale).
# Ube3a-deficient mice [5] = test: Associative fear conditioning; assay type: in vivo; conditions: AS mice
# Procedure: as §3, §4
# Associative fear conditioning. Fear conditioning was used to assess hippocampal function and associative learning and memory. Training included 2 shock-tone (CS/US) pairings. Detailed methods have been previously described (Trotter, J. et al., The Journal of Neuroscience, 2013, 33(39):[…]). […]
# [6] = Group weights of AS mice on ketone ester diet; assay type: in vivo; conditions: 10% BD-AcAc2 in chow ad libitum, 8 weeks, vs AS controls
# Procedure: as §3, §4
# (§5) The inventors hypothesized that supplemental ketone administration would decrease seizure frequency, increase seizure threshold, and improve hippocampal-dependent cognition and motor learning deficiencies.
# Ube3a-deficient mice [7] = test: Novel object recognition; assay type: in vivo; conditions: AS mice, 24 hours following training
# Procedure: as §3, §4
# Novel Object Recognition. Novel object recognition was used to evaluate recognition memory. Following habituation to an open field arena, mice were allowed to explore the arena containing two identical objects for 15 minutes. 24 hours following training, a novel object replaced one of the old objects and mice were allowed to explore for 5 minutes.
# [8] = Blood glucose and ketone levels in AS mice; assay type: in vivo; conditions: for blood ketones: AS mice on KE diet vs WT and AS controls; for blood glucose: AS mice on KE diet vs WT and AS mice on control diet
# Procedure: as §4
# Blood glucose and ketone levels. Blood was collected from the tip of the tail weekly using the Precision Xtra system with both glucose and ketone test strips, each requiring 0.6 μL samples.
# as §5
# Ube3a-deficient mice [9] = test: Induced audiogenic seizures; assay type: in vivo; conditions: for latency to seize: AS treated vs AS control mice, audiogenic seizures
# Procedure: as §3, §4
# Induced audiogenic seizures. Seizures were induced by exposing mice to a 120-dB white noise in a sound-attenuated chamber until seizures occurred or for a maximum of 60 s. Both seizure frequency and threshold (time until seizures began) were recorded.
# Ube3a-deficient mice [10] = test: Rotarod testing; assay type: in vivo; conditions: AS mice, treated vs AS littermate controls
# Procedure: as §3, §4
# Rotarod testing. Mice were placed on a rotating rod (Rotarod, Ugo Basile, Italy) that accelerated from 4 to 40 rpm. For two consecutive days, four trials were performed per day with a 45-60 min interval between trials. The maximum duration of each trial was 5 minutes. The time that the mice fell off the rod was recorded. […]
# [11] = listed as ketone ester supplement
structure (smiles),measurement,setting,value
CC(=O)CC(=O)OCCC(C)OC(=O)CC(C)=O (racemic) [HKE],Approximate caloric intake compared to controls,[1],~−7 % kcal
same,Alanine Aminotransferase (ALT),[2],Ns
same,Albumin,[2],Ns
same,Alkaline Phosphatase (ALP),[2],Ns
same,Blood Urea Nitrogen (BUN),[2],Ns
same,Calcium,[2],Ns
same,Chloride,[2],Ns
same,Cholesterol,[2],Ns
same,Creatinine,[2],Ns
same,Gamma Glutamyltransferase (GGT),[2],Ns
same,Globulin,[2],Ns
same,Glucose,[2],Ns
same,Phosphorous,[2],Ns
same,Potassium,[2],Ns
same,Sodium,[2],Ns
same,Total Bilirubin,[2],Ns
same,Total Protein,[2],Ns
same,"Eotaxin, change from control",[3],↓**
same,"Fractalkine, change from control",[3],↑*
same,"G-CSF, change from control",[3],↓T
same,"GM-CSF, change from control",[3],—
same,"GRO/KC, change from control",[3],↓T
same,"IFNy, change from control",[3],↓*
same,"IL-1a, change from control",[3],↓*
same,"IL-1b, change from control",[3],↓*
same,"IL-2, change from control",[3],↓T
same,"IL-4, change from control",[3],—
same,"IL-5, change from control",[3],↓*
same,"IL-6, change from control",[3],↓*
same,"IL-10, change from control",[3],↓T
same,"IL-12(p70), change from control",[3],↓*
same,"IL-13, change from control",[3],↓**
same,"IL-17a, change from control",[3],—
same,"IL-18, change from control",[3],↓T
same,"IP-10, change from control",[3],↓***
same,"LIX, change from control",[3],↓*
same,"Leptin, change from control",[3],↓*
same,"MCP-1, change from control",[3],↓T
same,"MIP-1a, change from control",[3],—
same,"MIP-2, change from control",[3],—
same,"RANTES, change from control",[3],↓**
same,"TNF-a, change from control",[3],—
same,"VEGF, change from control",[3],—
CC(=O)CC(=O)OCCC(C)OC(=O)CC(C)=O (racemic) [LKE],Approximate caloric intake compared to controls,[1],~+10 % kcal
same,Alanine Aminotransferase (ALT),[2],ns
same,Albumin,[2],ns
same,Alkaline Phosphatase (ALP),[2],ns
same,Blood Urea Nitrogen (BUN),[2],ns
same,Calcium,[2],ns
same,Chloride,[2],ns
same,Cholesterol,[2],ns
same,Creatinine,[2],ns
same,Gamma Glutamyltransferase (GGT),[2],ns
same,Globulin,[2],ns
same,Glucose,[2],ns
same,Phosphorous,[2],ns
same,Potassium,[2],ns
same,Sodium,[2],ns
same,Total Bilirubin,[2],ns
same,Total Protein,[2],ns
same,"Eotaxin, change from control",[3],↓T
same,"Fractalkine, change from control",[3],↑**
same,"G-CSF, change from control",[3],—
same,"GM-CSF, change from control",[3],—
same,"GRO/KC, change from control",[3],—
same,"IFNy, change from control",[3],—
same,"IL-1a, change from control",[3],—
same,"IL-1b, change from control",[3],—
same,"IL-2, change from control",[3],—
same,"IL-4, change from control",[3],—
same,"IL-5, change from control",[3],—
same,"IL-6, change from control",[3],↓T
same,"IL-10, change from control",[3],—
same,"IL-12(p70), change from control",[3],↓*
same,"IL-13, change from control",[3],↓T
same,"IL-17a, change from control",[3],—
same,"IL-18, change from control",[3],—
same,"IP-10, change from control",[3],—
same,"LIX, change from control",[3],—
same,"Leptin, change from control",[3],—
same,"MCP-1, change from control",[3],—
same,"MIP-1a, change from control",[3],↑T
same,"MIP-2, change from control",[3],—
same,"RANTES, change from control",[3],—
same,"TNF-a, change from control",[3],—
same,"VEGF, change from control",[3],↑*
"CC(=O)CC(=O)OCCC(C)OC(=O)CC(C)=O (stereo not drawn) [BD-AcAc2, R,S-1,3-butanediol acetoacetate diester]",behavioral seizure score (modified Racine's scale),Ube3a-deficient mice [4],significant decrease in behavioral seizure score
same,food consumption / caloric intake,"[1]; male Sprague Dawley rats, fed ad libitum 15 weeks",adjusted food consumption to regulate caloric intake to a large extent
same,contextual fear conditioning (hippocampal-dependent learning),Ube3a-deficient mice [5]; 24 hours after training,improves hippocampal-dependent learning
same,fear conditioning training phase (freezing),Ube3a-deficient mice [5]; training phase,does not affect the fear conditioning training phase
same,body weight / weight gain,[6],normalizes body weight
same,body weight / weight gain,[6]; [11],normalizes weight
same,novel object recognition memory,Ube3a-deficient mice [7],enhances novel object recognition memory
same,blood ketones,[8]; listed as KE,elevated ketones
same,blood ketones,[8]; [11],increases blood ketone levels
same,blood glucose,[8]; listed as KE,decreased blood glucose
same,blood glucose,[8]; [11],decreases blood glucose
same,audiogenic seizure activity,"Ube3a-deficient mice [9]; AS mice after 8 weeks on the diet, listed as ketone ester",decreased; also recorded: decreases seizure activity
same,audiogenic seizure frequency,"Ube3a-deficient mice [9]; AS treated group after 8 weeks on the diet, 120-dB white noise",86%
same,latency to seize,Ube3a-deficient mice [9],increases latency to seize
same,latency to seize,Ube3a-deficient mice [9]; listed as ketone ester,increased
same,rotarod performance,Ube3a-deficient mice [10],increases rotarod performance
